Test results taken from patent US5334583A (priority 1982, dated 1994).

Legend:
Assay type in all cases: in vivo
[1] = test system: Herpes Simplex 1/TUP; assay: Survival of mice infected intranasally with lethal dose of Herpes Simplex 1/TUP; conditions: intranasal, day -7, 0.1 mg/kg single dose; control 20
Method: Groups of 30, 40 or 50 female MF-2f SPF mice each having a body weight of 14-16 g, or of 12-14 g in the case of tests with herpes simplex 1 viruses, are infected intranasally, under light anaesthesia using a mixture of equal parts of ether, ethanol and chloroform, with lethal doses (approximately LD80-90; number of plaque-forming units [PFU] see Table 1 ) of the undermentioned virus strains in the form of 0.05 ml in each case of a suspension of the viruses.
At the time indicated below (days) in relation to the day of infection, 10 or 20 of these mice are administered once (single dose) the quantities indicated in Table 1 of the active ingredient, the sodium salt of N-acetylmuramyl-L-alanyl-D-isoglutaminyl-L-alanine-2-(1,2-dipalmitoyl-sn-glycero-3-hydroxyphosphoryloxy)-ethylamide (compound I), in 0.05 ml or 0.1 ml of phosphate-buffered salt solution (PBS) or in 0.2 ml of a 0.05 % by weight solution of sodium carboxymethylcellulose in double-distilled water, by means of intranasal, intravenous or oral administration respectively, in the manner indicated in Table 1 .
The remainder of the above-mentioned mice, that is 20 or 30, serve as the control, that is to say they either receive no treatment or are given a placebo.
The intranasal administration of compound I is effected under light anaesthesia using a mixture of equal parts of diethyl ether, ethanol and chloroform.

[2] = test system: Influenza B/Hong Kong/5/72; assay: Survival of mice infected intranasally with lethal dose of Influenza B/Hong Kong/5/72; conditions: intranasal, day -7, 0.1 mg/kg single dose; control 30
[3] = test system: Herpesvirus hominis 2/Angelotti; assay: Topical chemotherapy of Herpes genitalis in guinea pigs, local symptoms; conditions: for Animals [%] with regression of symptoms of ≥ 66% on day 7 / Animals [%] with regression of symptoms of ≥ 66% on day 10 / Animals [%] with regression of symptoms of ≥ 66% on day 12 / Animals [%] with regression of symptoms of ≥ 66% on day 14 / Symptom-free animals [%] on day 10 / Symptom-free animals [%] on day 12 / Symptom-free animals [%] on day 14 / Symptom-free animals [%] on day 21: placebo 0, untreated 0; for Symptom-free animals [%] on day 34: placebo 0, untreated 20
Text: The number indicated in the following Table of female albino guinea pigs of the Pirbright strain (150-180 g body weight) are infected intravaginally with ~10^4 PFU (plaque-forming units) of Herpesvirus hominis 2/Angelotti, cultivated in HEL (human embryonal lungs) cells, as described in B. Lukas et. al., Arch. ges. Virusforsch. 44, 153-155 (1974) .
At the time indicated in the following Table (the time difference in days in relation to the day of infection, - [minus] indicating a time before infection) the number N of guinea pigs indicated in Table 2 are treated intravaginally with a single dose of in each case 0.1 ml of a gel containing the concentration of compound I indicated in Table 2.
The gel without active ingredient has the following composition:
2.25 % sodium carboxymethylcellulose (Hercules, USA)
made up to 100 % with bi-distilled water.
The effect of the treatment can be seen in Table 2.
The symptoms occurring in untreated animals are described in B. Lukas et al., Arch. Virol. 49, 1-11 (1975) .

[4] = test system: Herpes Simplex 1/Virtue; assay: Survival of mice infected intranasally with lethal dose of Herpes Simplex 1/Virtue; conditions: intranasal, day -7, 0.1 mg/kg single dose; control 40
[5] = test system: Encephalomyocarditis; assay: Survival of mice infected intranasally with lethal dose of Encephalomyocarditis virus; conditions: oral, control 30
[6] = test system: vaccinal virus IHD; assay: Tail lesions in mice infected intravenously with vaccinal virus IHD; conditions: 1 mg/kg oral; for Number of tail lesions (mean ± standard deviation) on day +7 / Number of tail lesions (mean ± standard deviation) on day +9: control 4.3 ± 1.9; for Number of tail lesions (mean ± standard deviation) on day +12: control 4.6 ± 1.8; for Number of tail lesions (mean ± standard deviation) on day +10: control 5.9 ± 1.9
Method: Groups of 20 female Tif:MF-2f (SPF) mice each having a body weight of 14-16 g are infected intravenously, under light anaesthesia using a mixture of equal parts of diethyl ether, ethanol and chloroform, with 2×10^3 PFU vaccinal virus IHD in the form of in each case 0.1 ml of a suspension of the virus in beef heart infusion broth.
10 of these mice from each of the above-mentioned groups are treated on the fourth or sixth day after infection, that is to say on day +4 or +6 (administration day), with a single oral administration of 1 mg/kg of compound I in 0.2 ml of a 0.05 % by weight aqueous solution of sodium carboxymethylcellulose.
The remaining 10 mice from each of the above-mentioned groups serve as the controls and receive a placebo.
On the seventh, ninth, tenth and twelfth day after infection the number of tail lesions in the mice is determined, this being carried out substantially as described by J. J. Boyle, R. F. Haff and R. C. Stewart in Antimicrobial Agents and Chemotherapy, 536-539 (1967), and it should be noted that the first tail lesions can be identified only on the sixth or seventh day.

[7] = 0.1 ml gel 0.1 % intravaginal, single dose day +4, N 13
[8] = 0.1 ml gel 0.1 % intravaginal, single dose day -7, N 14
[9] = 0.1 ml gel 1.0 % intravaginal, single dose day +4, N 14
[10] = 0.1 ml gel 1.0 % intravaginal, single dose day -7, N 14
[11] = single administration on day +4
[12] = single administration on day +6

## CCCCCCCCCCCCCCCC(=O)OC[C@H](COP(=O)(O)OCCNC(=O)[C@H](C)NC(=O)CC[C@@H](NC(=O)[C@H](C)NC(=O)[C@@H](C)O[C@H]1[C@H](O)[C@@H](CO)OC(O)[C@@H]1NC(C)=O)C(N)=O)OC(=O)CCCCCCCCCCCCCCC (stereo partly drawn) [compound I, N-acetylmuramyl-L-alanyl-D-isoglutaminyl-L-alanine-2-(1,2-dipalmitoyl-sn-glycero-3-hydroxyphosphoryloxy)-ethylamide]
[1]
  Percentage survivors: 60%
[2]
  Percentage survivors: 80%
[3]; [7]
  Animals [%] with regression of symptoms of ≥ 66% on day 7: 62%
  Animals [%] with regression of symptoms of ≥ 66% on day 10: 85%
  Animals [%] with regression of symptoms of ≥ 66% on day 12: 100%
  Animals [%] with regression of symptoms of ≥ 66% on day 14: 93%
  Symptom-free animals [%] on day 10: 70%
  Symptom-free animals [%] on day 12: 77%
  Symptom-free animals [%] on day 14: 85%
  Symptom-free animals [%] on day 21: 100%
  Symptom-free animals [%] on day 34: 100%
[3]; [8]
  Animals [%] with regression of symptoms of ≥ 66% on day 7: 21%
  Animals [%] with regression of symptoms of ≥ 66% on day 10: 57%
  Animals [%] with regression of symptoms of ≥ 66% on day 12: 86%
  Animals [%] with regression of symptoms of ≥ 66% on day 14: 100%
  Symptom-free animals [%] on day 10: 43%
  Symptom-free animals [%] on day 12: 64%
  Symptom-free animals [%] on day 14: 86%
  Symptom-free animals [%] on day 21: 86%
  Symptom-free animals [%] on day 34: 100%
[3]; [9]
  Animals [%] with regression of symptoms of ≥ 66% on day 7: 79%
  Animals [%] with regression of symptoms of ≥ 66% on day 10: 79%
  Animals [%] with regression of symptoms of ≥ 66% on day 12: 86%
  Animals [%] with regression of symptoms of ≥ 66% on day 14: 93%
  Symptom-free animals [%] on day 10: 36%
  Symptom-free animals [%] on day 12: 64%
  Symptom-free animals [%] on day 14: 79%
  Symptom-free animals [%] on day 21: 86%
  Symptom-free animals [%] on day 34: 100%
[3]; [10]
  Animals [%] with regression of symptoms of ≥ 66% on day 7: 29%
  Animals [%] with regression of symptoms of ≥ 66% on day 10: 79%
  Animals [%] with regression of symptoms of ≥ 66% on day 12: 71%
  Animals [%] with regression of symptoms of ≥ 66% on day 14: 93%
  Symptom-free animals [%] on day 10: 21%
  Symptom-free animals [%] on day 12: 57%
  Symptom-free animals [%] on day 14: 86%
  Symptom-free animals [%] on day 21: 86%
  Symptom-free animals [%] on day 34: 100%
[4]
  Percentage survivors: 70%
[5]; day +4, 1 mg/kg single dose
  Percentage survivors: 90%
[5]; day +4, 10 mg/kg single dose
  Percentage survivors: 70%
[5]; day +4, 100 mg/kg single dose
  Percentage survivors: 100%
[6]; [11]
  Number of tail lesions (mean ± standard deviation) on day +7: 0.9 ± 0.7
  Number of tail lesions (mean ± standard deviation) on day +9: 0.9 ± 0.9
  Number of tail lesions (mean ± standard deviation) on day +12: 0.2 ± 0.4
  Number of tail lesions (mean ± standard deviation) on day +10: 0.9 ± 1.4
[6]; [12]
  Number of tail lesions (mean ± standard deviation) on day +7: 1.1 ± 1.4
  Number of tail lesions (mean ± standard deviation) on day +9: 0.9 ± 1.6
  Number of tail lesions (mean ± standard deviation) on day +12: 0.5 ± 1.0
  Number of tail lesions (mean ± standard deviation) on day +10: 0.3 ± 0.7
